Experimental data taken from US20240279191A1 (The General Hospital Corporation, priority 2021, published 2024).

Legend:
[1] = target: TEAD2 (Homo sapiens, UniProt Q15562); assay: Inhibition of TEAD2 auto-palmitoylation in vitro
[2] = target: TEAD4 (Homo sapiens, UniProt Q15561); assay: Inhibition of TEAD4 auto-palmitoylation in vitro
Chain of TEAD4 (Q15561 whole entry, species assumed): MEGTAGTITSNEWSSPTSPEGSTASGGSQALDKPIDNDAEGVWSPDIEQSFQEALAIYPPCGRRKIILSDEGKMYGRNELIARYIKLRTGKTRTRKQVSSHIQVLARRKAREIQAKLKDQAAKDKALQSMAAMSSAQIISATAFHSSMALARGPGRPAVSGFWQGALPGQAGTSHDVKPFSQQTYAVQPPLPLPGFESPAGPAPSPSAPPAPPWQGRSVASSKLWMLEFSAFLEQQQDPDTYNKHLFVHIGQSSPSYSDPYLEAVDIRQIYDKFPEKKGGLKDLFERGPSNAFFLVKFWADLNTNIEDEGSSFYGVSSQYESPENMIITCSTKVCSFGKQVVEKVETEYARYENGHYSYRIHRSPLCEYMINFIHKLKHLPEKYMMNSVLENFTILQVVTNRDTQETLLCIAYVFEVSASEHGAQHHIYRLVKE

Chain of TEAD2 (Q15562 whole entry): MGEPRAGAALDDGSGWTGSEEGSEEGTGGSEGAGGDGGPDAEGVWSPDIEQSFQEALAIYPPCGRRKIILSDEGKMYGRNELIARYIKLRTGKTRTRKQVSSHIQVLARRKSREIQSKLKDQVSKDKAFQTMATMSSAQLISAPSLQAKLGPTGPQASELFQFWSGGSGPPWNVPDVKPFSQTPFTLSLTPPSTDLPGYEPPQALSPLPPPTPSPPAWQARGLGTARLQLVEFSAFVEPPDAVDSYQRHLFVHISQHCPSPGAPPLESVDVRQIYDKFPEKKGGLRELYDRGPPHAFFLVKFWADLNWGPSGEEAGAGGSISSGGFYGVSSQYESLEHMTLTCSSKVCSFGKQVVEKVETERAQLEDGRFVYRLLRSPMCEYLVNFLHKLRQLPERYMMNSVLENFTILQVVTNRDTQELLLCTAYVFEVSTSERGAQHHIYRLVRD

With `O=C(Nc1ccccc1)N1CCN(C(=O)c2cccc(OCCC3CCCCC3)c2)CC1` [TM2, 4-(3-(2-cyclohexylethoxy)benzoyl)-N-phenylpiperazine-1-carboxamide] the IC50 [1] was 156 nM and the IC50 [2] was 38 nM.
